Assay results as given in patent US5401648A, “Peptides having peptidyl transferase inhibiting activity and methods of use thereof” (University of Maryland College Park, priority 1993, dated 1995).

Assays:
[1] = tested on: peptidyl transferase; experiment: Fragment reaction peptidyl transferase assay with 70S ribosomes; type: biochemical, B. subtilis BR151; details: preincubation of inhibitor with ribosomes prior to addition to other reactants
Experimental: (§1) The fragment reaction was used to assay peptidyl transferase activity. Reaction mixes consisted of 60 mM Tris-HCl (pH 7.4), 400 mM KCl, 20 mM magnesium sulfate, and 1 mM neutralized puromycin in 50 μl, to which was added 25 μl absolute ethanol. Unless specifically noted, 70S ribosomes purified from B. subtilis BR151 as described in Spedding^1/ were added to 0.55 uM ^35 S-labeled N-formylmethionine, charged to tRNA and digested with endonuclease T1 as described by Marcker^2/, was added to each reaction at 1×10^6 to 2×10^6 cpm.
(§2) Peptide inhibitors were typically preincubated with the ribosomes prior to addition to the other reactants. Antibiotic inhibitors such as chloramphenicol were added to reaction mixes with the ribosomes but without the preincubation step. […] Peptidyl transferase reaction mixes were incubated on ice for 1 h, and were terminated by addition of 50 μl of 0.3M sodium acetate saturated with magnesium sulfate followed by 1 ml of ethyl acetate. The ethyl acetate phase was counted for radioactivity. All peptidyl transferase assays were performed in duplicate or triplicate, and the replicates varied by less than 5%. In separate experiments, the inhibitory activity of a single peptide preparation on a single ribosome preparation varied by as much as 10%.

[2] = tested on: peptidyl transferase activity of the 50S subunits; experiment: Fragment reaction peptidyl transferase assay with dissociated 50S subunits; type: biochemical, B. subtilis BR151
Experimental: as §1, §2
The 50S subunit contains the target for the 5-mer peptide. […]

Compound | effect of preincubation with ribosomes on inhibitory effect on peptidyl transferase [1] | effect on the peptidyl transferase activity of the 50S subunits [2]
O=C(N[C@H](CO)[C@H](O)c1ccc([N+](=O)[O-])cc1)C(Cl)Cl [chloramphenicol] | failed to increase | –
4-mer: 4-mer comparison peptide (SEQ ID NO: 5), sequence not printed in the text (MVKT) | – | little effect
